The results in this text go back to US7071341B2, “α-Glucosidase inhibitors and their synthesis from a natural source” (Council of Scientific and Industrial Research, priority 2003, dated 2006).

Molecules are shown by their SMILES. Entries after “also recorded” stand apart in the source; their conditions may differ.

The test system of one data set is yeast α-glucosidase. The data set is described as follows: α-glucosidase inhibitory assay by the chromogenic method. Type of data set: biochemical. The note with it: for α-glucosidase inhibitory potency compared with the standard drug 1-deoxy nojirimycin: comparison in words; for IC50: yeast α-glucosidase [Sigma], substrate p-nitrophenyl-α-D-glucopyranoside, pH 7.00, absorbance at 405 nm. How it is done: The α-glucosidase inhibitory assay was done by the chromogenic method. In brief 10 μl of test compounds dissolved in DMSO (5 mg/ml and subsequent dilutions) were incubated for 5 min. with 50 μl of yeast α-glucosidase [Sigma] enzyme prepared in 100 mM phosphate buffer (pH 7.00). After 5 minutes of incubation, 50 μl of 5 mM substrate (p-nitrophenyl-α-D-glucopyranoside [Sigma] prepared in the same buffer) was added. The pre-substrate and 5-min post-substrate addition absorbances were recorded at 405 nm spectrophotometrically. The increase in absorbance from pre-substrates addition to post substrates reaction were obtained.

As to `O=C(O[C@H]1Cc2ccc(O)c(O)c2O[C@@H]1c1ccc(O)c(O)c1)c1ccc(F)cc1` [Compound 4k, (−)-3-O-(p-flourobenzoyl) mesquitol], the “α-glucosidase inhibitory potency compared with the standard drug 1-deoxy nojirimycin” value in the data set on yeast α-glucosidase (listed as p-flourobenzyl ester of (−) mesquitol) is “more potent α-glucosidase inhibitor than the standard drug 1-deoxy nojirimycin”. Also, the IC50 (usually the concentration that gives 50% inhibition) at yeast α-glucosidase turned out to be 32.8 µM.

As to `COc1ccc(C(=O)OC2Cc3ccc(O)c(O)c3OC2c2ccc(O)c(O)c2)cc1` (single isomer, unassigned; (-)) [Compound 4j, (−)-3-O-(p-methoxybenzoyl) mesquitol], the melting point (as a rule, the temperature of the solid-liquid transition) came to 254 °C. On yeast α-glucosidase, this molecule gave an IC50 of 67.3 µM.

As to `CCCCCCCCCC(=O)O[C@H]1Cc2ccc(O)c(O)c2O[C@@H]1c1ccc(O)c(O)c1` [Compound 4d, (−)-3-O-Decanoyl mesquitol], the “α-glucosidase inhibitory potency compared with the standard drug 1-deoxy nojirimycin” value in the data set on yeast α-glucosidase (listed as decanoyl ester of (−) mesquitol) was “more potent α-glucosidase inhibitors than the standard drug 1-deoxy nojirimycin; also recorded: more potent than the standard α-glucosidase inhibitor 1-deoxy nojirimycin”. Besides, it took 13.5 µM to reach half-maximal inhibition on yeast α-glucosidase (IC50).

For `CCCC(=O)OC1Cc2ccc(O)c(O)c2OC1c1ccc(O)c(O)c1` (single isomer, unassigned; (-)) [Compound 4b, (−)-3-O-butyryl mesquitol], the melting point is 80 °C. Also, at yeast α-glucosidase, the IC50 turned out to be 46.2 µM.

Molecule `CCCCCCCCCCCCCCCC(=O)OC1Cc2ccc(O)c(O)c2OC1c1ccc(O)c(O)c1` (single isomer, unassigned; (-)) [Compound 4f, (−)-3-O-Palmitoyl mesquitol] showed a melting point of 87 °C. In addition, the “α-glucosidase inhibitory potency compared with the standard drug 1-deoxy nojirimycin” value with yeast α-glucosidase (listed as palmitoyl ester of (−) mesquitol) is “more potent α-glucosidase inhibitors than the standard drug 1-deoxy nojirimycin; also recorded: more potent than the standard α-glucosidase inhibitor 1-deoxy nojirimycin”. Also, the concentration for half-maximal inhibition (IC50) against yeast α-glucosidase was 9.56 µM.

With `CCCCCCCCCCCCCC(=O)OC1Cc2ccc(O)c(O)c2OC1c1ccc(O)c(O)c1` (single isomer, unassigned; (-)) [Compound 4e, (−)-3-O-myristoyl mesquitol], the melting point amounted to 83 °C. In addition, in the data set on yeast α-glucosidase (listed as myristoyl ester of (−) mesquitol), the “α-glucosidase inhibitory potency compared with the standard drug 1-deoxy nojirimycin” value is “more potent α-glucosidase inhibitors than the standard drug 1-deoxy nojirimycin; also recorded: more potent than the standard α-glucosidase inhibitor 1-deoxy nojirimycin”. The IC50 on yeast α-glucosidase is 12.6 µM.

Molecule `O=C(OC1Cc2ccc(O)c(O)c2OC1c1ccc(O)c(O)c1)c1ccccc1` (single isomer, unassigned; (-)) [Compound 4h, (−)-3-O-benzoyl mesquitol] came in with a melting point of 248 °C. For the same molecule, the “α-glucosidase inhibitory potency compared with the standard drug 1-deoxy nojirimycin” value with yeast α-glucosidase (listed as benzoyl ester of (−) mesquitol) was “more potent α-glucosidase inhibitor than the standard drug 1-deoxy nojirimycin”. For the same molecule, on yeast α-glucosidase, it took 77.8 µM to reach half-maximal inhibition (IC50).

Regarding `CCCCCCCCCCCCCCCCCC(=O)OC1Cc2ccc(O)c(O)c2OC1c1ccc(O)c(O)c1` (single isomer, unassigned; (-)) [Compound 4g, (−)-3-O-Steroyl mesquitol], the melting point amounted to 90 °C. Half-maximal inhibition on yeast α-glucosidase (IC50) required 54.5 µM.

`Oc1ccc(C2Oc3c(ccc(O)c3O)CC2O)cc1O` (single isomer, unassigned; (-)) [Compound 1, (−)-mesquitol] registered a melting point of 252 °C. Further, in the data set on yeast α-glucosidase, the “α-glucosidase inhibitory activity, in words” value was “potent α-glucosidase inhibitory activity” and the midpoint of inhibition, the IC50, lay at 82.3 µM.

For the molecule `CC(=O)OC1Cc2ccc(O)c(O)c2OC1c1ccc(O)c(O)c1` (single isomer, unassigned; (-)) [Compound 4a, (−)-3-O-acetyl mesquitol], the melting point came to 78 °C. Besides, at yeast α-glucosidase, the IC50 stood at 46.3 µM.

Take `CCCCCC(=O)OC1Cc2ccc(O)c(O)c2OC1c1ccc(O)c(O)c1` (single isomer, unassigned; (-)) [Compound 4c, (−)-3-O-hexanoyl mesquitol]: the melting point came to 81 °C. Further, the IC50 against yeast α-glucosidase turned out to be 49.3 µM.

Consider `O=C(OC1Cc2ccc(O)c(O)c2OC1c1ccc(O)c(O)c1)c1ccccc1Cl` (single isomer, unassigned; (-)) [Compound 4I, (−)-3-O-(o-chlorobenzoyl) mesquitol], for which the melting point worked out at 252 °C. On yeast α-glucosidase, the IC50 is 43.3 µM.
